Assay: xn = mol fraction of the nth substance listed
Conditions: 100 kPa, Liquid; for speed of sound: Frequency=3 MHz, Sing-around technique in a fixed-path interferometer; for mass density: Vibrating tube method

COCCO [2-methoxyethan-1-ol] + CCCC[n+]1ccn(C)c1.O=S(=O)([N-]S(=O)(=O)C(F)(F)F)C(F)(F)F
Conditions | mass density [kg/m3] | speed of sound [m/s]
298.15 K, x2 = 0 | 960.31 | 1341.8
298.15 K, x2 = 0.0966 | 1098.07 | 1301.4
298.15 K, x2 = 0.1943 | 1188.97 | 1279.7
298.15 K, x2 = 0.2887 | 1250.58 | 1266
298.15 K, x2 = 0.3979 | 1302.72 | 1253.5
298.15 K, x2 = 0.4792 | 1332.79 | 1246.7
298.15 K, x2 = 0.5943 | 1365.91 | 1239.9
298.15 K, x2 = 0.6753 | 1384.52 | 1236.6
298.15 K, x2 = 0.8101 | 1409.81 | 1232.5
298.15 K, x2 = 0.8849 | 1421.49 | 1230.2
303.15 K, x2 = 0 | 955.71 | 1324.1
303.15 K, x2 = 0.0966 | 1093.42 | 1285.2
303.15 K, x2 = 0.1943 | 1184.24 | 1264.7
303.15 K, x2 = 0.2887 | 1245.82 | 1251.7
303.15 K, x2 = 0.3979 | 1298.03 | 1240.4
303.15 K, x2 = 0.4792 | 1328.12 | 1234.1
303.15 K, x2 = 0.5943 | 1361.32 | 1227.6
303.15 K, x2 = 0.6753 | 1379.92 | 1224.9
303.15 K, x2 = 0.8101 | 1405.23 | 1221.2
303.15 K, x2 = 0.8849 | 1416.91 | 1219
308.15 K, x2 = 0 | 951.08 | 1307.3
308.15 K, x2 = 0.0966 | 1088.78 | 1269.8
308.15 K, x2 = 0.1943 | 1179.32 | 1250.1
308.15 K, x2 = 0.2887 | 1240.86 | 1237.7
308.15 K, x2 = 0.3979 | 1292.99 | 1227.8
308.15 K, x2 = 0.4792 | 1323.11 | 1221.7
308.15 K, x2 = 0.5943 | 1356.31 | 1216.1
308.15 K, x2 = 0.6753 | 1374.96 | 1213.3
308.15 K, x2 = 0.8101 | 1400.24 | 1209.9
308.15 K, x2 = 0.8849 | 1411.97 | 1208.2
313.15 K, x2 = 0 | 946.41 | 1292
313.15 K, x2 = 0.0966 | 1084.06 | 1255.3
313.15 K, x2 = 0.1943 | 1174.55 | 1236.4
313.15 K, x2 = 0.2887 | 1236.14 | 1224.7
313.15 K, x2 = 0.3979 | 1288.26 | 1215.7
313.15 K, x2 = 0.4792 | 1318.36 | 1209.7
313.15 K, x2 = 0.5943 | 1351.69 | 1204.9
313.15 K, x2 = 0.6753 | 1370.39 | 1202
313.15 K, x2 = 0.8101 | 1395.76 | 1198.9
313.15 K, x2 = 0.8849 | 1407.44 | 1197.3
318.15 K, x2 = 0 | 941.72 | 1274.2
318.15 K, x2 = 0.0966 | 1079.38 | 1238.8
318.15 K, x2 = 0.1943 | 1169.76 | 1221.3
318.15 K, x2 = 0.2887 | 1231.28 | 1210.4
318.15 K, x2 = 0.3979 | 1283.31 | 1202.3
318.15 K, x2 = 0.4792 | 1313.34 | 1197.1
318.15 K, x2 = 0.5943 | 1346.72 | 1192.7
318.15 K, x2 = 0.6753 | 1365.42 | 1190.3
318.15 K, x2 = 0.8101 | 1390.82 | 1187.7
318.15 K, x2 = 0.8849 | 1402.59 | 1186.3
323.15 K, x2 = 0 | 936.99 | 1259.4
323.15 K, x2 = 0.0966 | 1074.61 | 1224.6
323.15 K, x2 = 0.1943 | 1165.02 | 1207.8
323.15 K, x2 = 0.2887 | 1226.67 | 1197.6
323.15 K, x2 = 0.3979 | 1278.8 | 1190.1
323.15 K, x2 = 0.4792 | 1308.85 | 1185
323.15 K, x2 = 0.5943 | 1342.24 | 1181.1
323.15 K, x2 = 0.6753 | 1361.02 | 1179.1
323.15 K, x2 = 0.8101 | 1386.53 | 1176.9
323.15 K, x2 = 0.8849 | 1398.24 | 1175.9
